US9290490B2 (Merck Sharp & Dohme Corp., priority 2011, dated 2016)
Counter-ions that a name gives are not always drawn. Like-named read-outs stand apart in the source and are kept apart here.

Molecular target: recombinant human GST-Syk (Homo sapiens (Human), UniProt P43405)
Assay: Homogeneous Time-Resolved Fluorescence (HTRF) Assay for the Recombinant Human Syk Enzyme
Assay type: biochemical
Details: recombinant human GST-Syk 5 pM, ATP 25 μM
Protocol: Homogeneous Time-Resolved Fluorescence (HTRF) Assay for the Recombinant Human Syk Enzyme:
A recombinant GST-hSyk fusion protein was used to measure potency of compounds to inhibit human Syk activity. The recombinant human GST-Syk (Carna Biosciences #08-176) (5 pM final concentration) was incubated with various concentrations of the inhibitor diluted in DMSO (0.1% final concentration) for 10 minutes at room temperature in 15 mM Tris-HCl (pH 7.5), 0.01% tween 20, 2 mM DTT in 384 well plate format. To initiate the reaction the biotinylated substrate peptide (250 nM final concentration) that contains the phosphorylation site for Syk was added with magnesium (5 mM final concentration) and ATP (25 μM final concentration). Final volume of the reaction was 10 μL. Phosphorylation of the peptide was allowed to proceed for 45′ at room temperature. To quench the reaction and detect the phosphorylated product, 2 nM of a Europium-anti-phosphotyrosine antibody (Perkin Elmer #AD0161) and 70 nM SA-APC (Perkin-Elmer #CR130-100) were added together in 15 mM Tris pH 7.5, 40 mM EDTA, 0.01% Tween 20. Final volume of the quenching solution was 10 μL. The resulting HTRF signal was measured after 30 minutes on a EnVision (Perkin-Elmer) reader using a time-resolved fluorescence protocol. […] IC50 values are also provided for the following representative compounds: […]

[1] = read-out: rhSyk Activity (IC50)
[2] = 10-dose titration, read-out: rhSyk

| IC50 [1] [µM] | IC50 [2] [µM] | SMILES |
| --- | --- | --- |
| ≤ 0.1 |  | Cc1cc(Nc2nccc(C(F)(F)F)n2)cc(-c2cnc([C@@](O)(CF)[C@H]3CC[C@H](C(=O)O)CC3)s2)c1 [Example 10] |
| 0.1 to 1 |  | Cc1cc(Nc2nccc(C(F)(F)F)n2)cc(-c2cnc(C(=O)C3CCC(=O)CC3(C)C)s2)c1 (racemic) [Example 11, N-(3-{2-[(2,2-dimethyl-4-oxocyclohexyl)carbonyl]-1,3-thiazol-5-yl}-5-methylphenyl)-4-(trifluoromethyl)pyrimidin-2-aminium trifluoroacetate] |
| ≤ 0.1 | 0.013 | Cc1cc(Nc2nccc(C)n2)cc(-c2cnc(C(C)(O)C3CCC(C(=O)O)CC3)s2)c1 (centres unmarked) [Example 2-53] |
| ≤ 0.1 | 0.002 | Cc1cc(Nc2nccc(C(F)(F)F)n2)cc(-c2cnc(C(C)(O)C3CCC(C(=O)O)C3)s2)c1 (centres unmarked) [Example 3-2] |
| ≤ 0.1 |  | Cc1cc(Nc2nccc(C(F)(F)F)n2)cc(-c2cnc(C(O)(CF)[C@H]3CC[C@H](C(=O)O)CC3)s2)c1 (stereo partly drawn) [Example 9, trans-4-{2-fluoro-1-hydroxy-1-[5-(3-methyl-5-{[4-(trifluoromethyl)pyrimidin-2-yl]amino}phenyl)-1,3-thiazol-2-yl]ethyl}cyclohexanecarboxylic acid] |
| ≤ 0.1 | 0.001 | CC(O)(c1ncc(-c2cc(Nc3nccc(C(F)(F)F)n3)cc(C3CC3)c2)s1)[C@H]1CC[C@H](C(=O)O)CC1 (single isomer, unassigned) [Example 16, trans-4-{(1R or 1S)-[5-(3-cyclopropyl-5-{[4-(trifluoromethyl)pyrimidin-2-yl]amino}phenyl)-1,3-thiazol-2-yl]-1-hydroxyethyl}cyclohexanecarboxylic acid] |
| ≤ 0.1 | 0.005 | Cc1cc(Nc2ncc(Cl)c(C)n2)cc(-c2cnc(C(C)(O)C3CCC(C(=O)O)CC3)s2)c1 (centres unmarked) [Example 2-60] |
| ≤ 0.1 |  | Cc1cc(Nc2nccc(C(F)(F)F)n2)cc(-c2cnc(C(C)(O)C3CCC(C)(C(=O)O)CC3)s2)c1 (centres unmarked) [Example 3-7] |
| ≤ 0.1 |  | Cc1cc(Nc2nccc(C)n2)cc(-c2cnc(C[C@]3(O)CC[C@H](C(=O)O)CC3)s2)c1 [5 (trans isomer), trans-4-hydroxy-4-[(5-{3-methyl-5-[(4-methylpyrimidin-2-yl)amino]phenyl}-1,3-thiazol-2-yl)methyl]cyclohexanecarboxylic acid] |
| ≤ 0.1 |  | Cc1cc(Nc2nccc(C(F)(F)F)n2)cc(-c2cncs2)c1 [Intermediate 21, N-[3-methyl-5-(1,3-thiazol-5-yl)phenyl]-4-(trifluoromethyl)pyrimidin-2-amine] |
| ≤ 0.1 |  | Cc1cc(Nc2nccc(C)n2)cc(-c2cnc(C[C@]3(O)CC[C@@H](C(=O)O)CC3)s2)c1 [Example 5 (cis isomer), cis-4-hydroxy-4-[(5-{3-methyl-5-[(4-methylpyrimidin-2-yl)amino]phenyl}-1,3-thiazol-2-yl)methyl]cyclohexanecarboxylic acid] |
| ≤ 0.1 |  | Cc1cc(Nc2nccc(C(F)(F)F)n2)cc(-c2cnc(C(C)(O)C3CCC(C)(C(=O)O)CC3)s2)c1 (single isomer, unassigned) [Example 3 (isomer 3), 4-{1-hydroxy-1-[5-(3-methyl-5-{[4-(trifluoromethyl)pyrimidin-2-yl]amino}phenyl)-1,3-thiazol-2-yl]ethyl}-1-methylcyclohexanecarboxylic acid] |
| ≤ 0.1 |  | Cc1cc(Nc2nccc(C(F)(F)F)n2)cc(-c2cnc([C@@](O)(C3CC3)[C@H]3CC[C@H](C(=O)O)CC3)s2)c1 (single isomer, unassigned) [Example 2 (from Intermediate 28 faster eluting enantiomer), trans-4-{(R or S)-cyclopropyl(hydroxy)[5-(3-methyl-5-{[4-(trifluoromethyl)pyrimidin-2-yl]amino}phenyl)-1,3-thiazol-2-yl]methyl}cyclohexanecarboxylic acid] |
